Test results taken from patent US7652143B2, “Cyclic ureas used as inhibitors of metalloproteases” (sanofi-aventis Deutschland GmbH, priority 2004, dated 2010).
Structures can show the parent of a compound that is named as a salt. Where two headings read alike, the source gives them in different places.

What was measured:
[1] = molecular target: T1, TNFα-converting enzyme (TACE) (Homo sapiens, UniProt P78536); assay: Inhibition of TACE activity (fluorimetric peptide substrate cleavage); assay type: biochemical
T1 construct: purchased R&D Systems
T1 sequence (P78536 215-824): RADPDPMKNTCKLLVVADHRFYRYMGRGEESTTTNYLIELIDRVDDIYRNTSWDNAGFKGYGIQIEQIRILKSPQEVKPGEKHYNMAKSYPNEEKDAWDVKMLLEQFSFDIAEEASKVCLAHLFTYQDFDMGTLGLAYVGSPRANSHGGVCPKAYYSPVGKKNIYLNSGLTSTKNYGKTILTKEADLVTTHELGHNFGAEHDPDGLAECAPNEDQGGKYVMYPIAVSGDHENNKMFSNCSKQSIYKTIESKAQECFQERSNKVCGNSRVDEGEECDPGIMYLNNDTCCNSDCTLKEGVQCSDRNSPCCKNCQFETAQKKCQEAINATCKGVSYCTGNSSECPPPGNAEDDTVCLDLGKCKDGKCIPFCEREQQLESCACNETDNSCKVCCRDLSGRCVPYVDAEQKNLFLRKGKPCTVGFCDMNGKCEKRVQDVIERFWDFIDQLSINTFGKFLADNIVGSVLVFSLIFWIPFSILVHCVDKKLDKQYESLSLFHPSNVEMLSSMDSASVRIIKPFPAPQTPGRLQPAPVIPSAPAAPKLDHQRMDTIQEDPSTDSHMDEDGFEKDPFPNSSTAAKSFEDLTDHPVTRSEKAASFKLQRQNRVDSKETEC
Description: The activity of the cyclic urea derivatives of the invention was tested in various in vitro assay systems for inhibitory activity on the proteases ADAMTS-4 and TNFα-converting enzyme (TACE) and on matrix-degrading metalloproteases (MMP13).
The activity in relation to TACE was measured using a commercially available, recombinantly prepared TACE protease (R&D Systems) and the substrate MCA-ProLeuAlaGlnAlaVal-Dpa-ArgSerSerSerArg-NH2 (Bachem).

human ADAMTS-4 protease = molecular target: T2, human ADAMTS-4 protease (Homo sapiens, UniProt O75173); assay: Inhibition of ADAMTS-4 activity (rAgg1mut substrate, neo-epitope ELISA); assay type: biochemical; details: recombinant human ADAMTS-4, rAgg1mut substrate
T2 sequence (O75173 213-837): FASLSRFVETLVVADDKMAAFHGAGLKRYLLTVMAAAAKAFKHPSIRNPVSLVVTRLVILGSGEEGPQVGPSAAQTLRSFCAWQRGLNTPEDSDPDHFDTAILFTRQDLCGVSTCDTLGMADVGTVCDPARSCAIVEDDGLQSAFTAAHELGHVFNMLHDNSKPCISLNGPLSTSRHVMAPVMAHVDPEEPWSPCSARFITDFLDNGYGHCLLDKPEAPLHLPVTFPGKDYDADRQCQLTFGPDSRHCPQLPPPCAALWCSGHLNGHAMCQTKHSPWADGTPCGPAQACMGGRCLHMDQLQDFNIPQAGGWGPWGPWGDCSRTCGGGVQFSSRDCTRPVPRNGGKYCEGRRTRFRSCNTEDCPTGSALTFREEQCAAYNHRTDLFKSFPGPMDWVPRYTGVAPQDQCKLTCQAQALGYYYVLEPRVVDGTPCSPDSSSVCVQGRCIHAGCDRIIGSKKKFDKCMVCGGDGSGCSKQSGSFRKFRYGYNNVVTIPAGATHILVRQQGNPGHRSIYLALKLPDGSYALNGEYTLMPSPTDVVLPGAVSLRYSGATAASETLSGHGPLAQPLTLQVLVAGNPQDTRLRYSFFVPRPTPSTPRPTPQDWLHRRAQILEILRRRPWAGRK

MMP13 = molecular target: T3, MMP13 (Homo sapiens, UniProt P45452); assay: Inhibition of MMP 13 activity (fluorimetric peptide substrate cleavage); assay type: biochemical; details: recombinant enzyme, APMA activation, pH 7.5 or pH 6.5, fluorimeter
T3 construct: purchased Biotrend, Roche, Boehringer Mannheim

[2] = tested on: primary bovine chondrocytes; assay: Inhibition of proteoglycan liberation from IL1α-stimulated primary bovine chondrocyte cultures; assay type: cell-based; details: Bos taurus, alginate culture, 5 ng/ml human IL1α, 16 hours, dimethylmethylene blue dye test
Description: The proteoglycan degradation was determined using primary bovine chondrocytes which were isolated from the cartilage of the metacarpophalangeal joint of cattle about 6 months old and cultured in an alginate matrix at 37° C. and 5% CO2 for 3 weeks. Stimulation of ˜160 000 cells with 5 ng/ml human IL1α was followed after 16 hours by determination of the liberated amount of proteoglycan by means of a commercially available dimethylmethylene blue dye test system (Biocolor Ltd.).

[3] = recombinant TACE (R&D Systems), MCA peptide substrate, fluorimeter, read-out: Inhibition of TACE activity (IC50)

| IC50 [1, 3] [µM] | IC50 (human ADAMTS-4 protease) [µM] | IC50 (MMP13) [nM] | IC50 [1] [µM] | Compound | IC50 [2] [µM] |
| --- | --- | --- | --- | --- | --- |
| 1.9 | 3.16 | 600 |  | CC(C)C(C(=O)NO)N1C(=O)N(Cc2ccc(OCc3ccccc3)cc2)CC1Cc1ccc2c(c1)OCO2 (stereo not drawn) [Example 18, 2-(5-Benzo(1,3)dioxol-5-ylmethyl-3-(4-benzyloxybenzyl)-2-oxoimidazolidin-1-yl)-N-hydroxy-3-methylbutyramide] |  |
| 3.04 | 72.4 |  |  | CC(C)C(C(=O)NO)N1CCN(Cc2cccc(O)c2)C1=O (stereo not drawn) [Example 9, N-Hydroxy-2-(3-(3-hydroxybenzyl)-2-oxoimidazolidin-1-yl)-3-methylbutyramide] |  |
| 5 |  |  |  | CC#CCOc1ccc(CN2CCN(C(C(=O)NO)C(C)C)C2=O)cc1 (stereo not drawn) [Example 13, 2-(3-(4-But-2-ynyloxybenzyl)-2-oxoimidazolidin-1-yl)-N-hydroxy-3-methylbutyramide] |  |
| 2.47 | 2.1 | 5000 |  | CC(C)C(C(=O)NO)N1CCN(Cc2ccc(OCc3ccccc3)cc2)C1=O (stereo not drawn) [Example 1, 2-(3-(4-Benzyloxybenzyl)-2-oxoimidazolidin-1-yl)-N-hydroxy-3-methylbutyramide] | > 50 |
| 8 | 7 |  |  | CC(C)C(C(=O)NO)N1CCN(Cc2ccc(OCc3ccccn3)cc2)C1=O (stereo not drawn) [Example 12, N-Hydroxy-3-methyl-2-{2-oxo-3-(4-(pyridin-2-ylmethoxy)benzyl)imidazolidin-1-yl}butyramide with TFA] |  |
| 3.08 | 1.39 | 420 |  | COc1ccc(CC2CN(Cc3ccc(OCc4ccccc4)cc3)C(=O)N2C(C(=O)NO)C(C)C)cc1 (stereo not drawn) [Example 16, 2-(3-(4-Benzyloxybenzyl)-5-(4-methoxybenzyl)-2-oxoimidazolidin-1-yl)-N-hydroxy-3-methylbutyramide] | 25.5 |
| 0.01 | 1.14 |  |  | Cc1cc(COc2ccc(CN3CCN(C(C(=O)NO)C(C)C)C3=O)cc2)c2ccccc2n1 (stereo not drawn) [Example 14, N-Hydroxy-3-methyl-2-{3-(4-(2-methylquinolin-4-ylmethoxy)benzyl)-2-oxoimidazolidin-1-yl}butyramide with TFA] | 12.9 |
| 3 | 7.8 | 5400 |  | CC(C)C(C(=O)NO)N1CCN(Cc2ccc(OCc3cccnc3)cc2)C1=O (stereo not drawn) [Example 11, N-Hydroxy-3-methyl-2-[2-oxo-3-(4-(pyridin-3-ylmethoxy)benzyl)imidazolidin-1-yl]-butyramide with TFA] |  |
| 2 |  |  |  | CC(C)C(C(=O)NO)N1CCN(Cc2cccc(OCc3ccccc3)c2)C1=O (stereo not drawn) [Example 3, 2-(3-(3-Benzyloxybenzyl)-2-oxoimidazolidin-1-yl)-N-hydroxy-3-methylbutyramide] |  |
|  |  | 10 | 9 | COc1ccc(C2CN(Cc3ccccc3)C(=O)N2C(C(=O)NO)C(C)C)cc1 (stereo not drawn) [Example 7, 2-(3-Benzyl-5-(4-methoxyphenyl)-2-oxoimidazolidin-1-yl)-N-hydroxy-3-methylbutyramide] |  |
| 9.29 |  | 340 |  | CC(C)C(C(=O)NO)N1C(=O)N(Cc2ccccc2)CC1Cc1ccc2c(c1)OCO2 (stereo not drawn) [Example 19, 2-(5-Benzo(1,3)dioxol-5-ylmethyl-3-benzyl-2-oxoimidazolidin-1-yl)-N-hydroxy-3-methylbutyramide] |  |
| 8 | 17 | 400 |  | COc1ccc(CC2CN(Cc3ccccc3)C(=O)N2C(C(=O)NO)C(C)C)cc1 (stereo not drawn) [Example 15, 2-(3-Benzyl-5-(4-methoxybenzyl)-2-oxoimidazolidin-1-yl)-N-hydroxy-3-methylbutyramide] |  |
|  | 10 |  |  | CC(C)C(C(=O)NO)N1CCN(Cc2ccc(OCc3ccccc3)nc2)C1=O (stereo not drawn) [Example 5, 2-(3-(6-Benzyloxypyridin-3-ylmethyl)-2-oxoimidazolidin-1-yl)-N-hydroxy-3-methylbutyramide] |  |
|  | 0.9 | 4000 | 1.14 | CC(C)C(C(=O)NO)N1CCN(Cc2ccc(OCc3ccncc3)cc2)C1=O (stereo not drawn) [Example 10, N-Hydroxy-3-methyl-2-{2-oxo-3-(4-(pyridin-4-ylmethoxy)benzyl)imidazolidin-1-yl}-butyramide; compound with TFA] | > 50 |
|  | 55 |  |  | CC(C)C(C(=O)NO)N1CCN(c2ccc(OCc3ccccc3)cc2)C1=O (stereo not drawn) [Example 2, 2-(3-(4-Benzyloxyphenyl)-2-oxoimidazolidin-1-yl)-N-hydroxy-3-methylbutyramide] |  |
|  |  | 3580 |  | COc1ccc(CC2CN(Cc3ccc(OCc4ccccc4)cc3)S(=O)(=O)N2C(C(=O)NO)C(C)C)cc1 (stereo not drawn) [Example 20, 2-(5-(4-Benzyloxybenzyl)-3-(4-methoxybenzyl)-1,1-dioxo-(1,2,5)thiadiazolidin-2-yl)-N-hydroxy-3-methylbutyramide] |  |
| 5 | 1.33 | 80 |  | CC(C)C(C(=O)NO)N1CCN(Cc2ccc(Oc3ccccc3)cc2)C1=O (stereo not drawn) [Example 4, N-Hydroxy-3-methyl-2-(2-oxo-3-(4-phenoxybenzyl)imidazolidin-1-yl)-butyramide] |  |
|  |  | 3170 |  | COc1ccc(CC2CN(C)C(=O)N2C(C(=O)NO)C(C)C)cc1 (stereo not drawn) [Example 17, N-Hydroxy-2-(5-(4-methoxybenzyl)-3-methyl-2-oxoimidazolidin-1-yl)-3-methylbutyramide] |  |

| Compound | IC50 [1, 3] [µM] | IC50 (human ADAMTS-4 protease) [µM] | IC50 (MMP13) [nM] | IC50 [1] [µM] | IC50 [2] [µM] |
| --- | --- | --- | --- | --- | --- |
| 2-(3-Biphenyl-4-ylmethyl-2-oxoimidazolidin-1-yl)-N-hydroxy-3-methylbutyramide [Example 6] |  | 9.06 |  |  |  |
